This passage reports IC50 results from patent US12336981B2, “Compounds and compositions for the inhibition of NAMPT” (Valo Health, Inc., priority 2010, dated 2025).

Test [1] concerns A2780 cells. Briefly: In-vitro cell proliferation assay (SRB), A2780 cells. In kind it is cell-based. To be noted: Homo sapiens, A2780, 72 h, A2780 cells, 72 hours, read-out: A2780 IC50. In short, it runs like this: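 Growth inhibition was derived from background-corrected SRB absorbance (570 nm), measured on cells fixed in 6% TCA after three days of compound treatment under 5% CO2 at 37° C.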

Test [2] concerns the target T1, NAMPT (Homo sapiens, UniProt P43490).
T1 construct: His tag; host or cells: E. coli
The test can be described thus: Biochemical inhibition assay: NAMPT enzymatic reaction, NMN quantified by mass spectrometry. As to conditions: NAMPT enzymatic reaction; read-out: Biochem IC50. In short, it runs like this:
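Inhibition of E. coli-expressed His-tagged human NAMPT, measured as NMN formation by mass spectrometry after a 30 min room-temperature reaction containing 1 μM NAM, 100 μM PRPP and 2.5 mM ATP.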

Molecules are shown by their SMILES. Like-named read-outs stand apart in the source and are kept apart here.

In general, IC50 refers to the midpoint of a concentration-inhibition curve.

T1 sequence (P43490 whole entry): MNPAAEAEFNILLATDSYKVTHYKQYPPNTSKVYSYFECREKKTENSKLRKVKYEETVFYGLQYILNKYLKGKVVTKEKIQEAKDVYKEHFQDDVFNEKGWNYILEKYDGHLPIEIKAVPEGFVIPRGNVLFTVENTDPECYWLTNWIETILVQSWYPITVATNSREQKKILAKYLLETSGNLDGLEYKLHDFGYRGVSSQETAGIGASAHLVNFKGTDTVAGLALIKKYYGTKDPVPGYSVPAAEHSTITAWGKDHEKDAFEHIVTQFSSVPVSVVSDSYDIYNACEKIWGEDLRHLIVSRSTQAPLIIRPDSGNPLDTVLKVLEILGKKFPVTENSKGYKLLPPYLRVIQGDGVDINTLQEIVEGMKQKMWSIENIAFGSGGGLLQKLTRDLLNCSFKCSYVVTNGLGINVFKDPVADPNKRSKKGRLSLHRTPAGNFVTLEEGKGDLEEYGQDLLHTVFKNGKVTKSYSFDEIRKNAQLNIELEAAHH

For `COc1cc(Cl)cc(S(=O)(=O)c2ccc(CNC(=O)c3cc4cnccc4[nH]3)cc2)c1` [N-({4-[(3-chloro-5-methoxybenzene)sulfonyl]phenyl}methyl)-1H-pyrrolo[3,2-c]pyridine-2-carboxamide], the figures for the IC50 in test [1] (SRB) and in test [2] were 2.5 nM and 17 nM, respectively.
In the case of `Cc1cc(Cl)cc(S(=O)(=O)c2ccc(CNC(=O)c3cc4ccncc4s3)cc2)c1` [N-({4-[(3-chloro-5-methylbenzene)sulfonyl]phenyl}methyl)thieno[2,3-c]pyridine-2-carboxamide], the IC50 was found to be 1.6 nM in test [1] (SRB) and 4.5 nM in test [2].
The corresponding values for `O=C(NCc1ccc(S(=O)(=O)c2cccc(Cl)c2)cc1)c1cnc2[nH]ncc2c1` [N-({4-[(3-chlorobenzene)sulfonyl]phenyl}methyl)-1H-pyrazolo[3,4-b]pyridine-5-carboxamide] are 6 nM and 7 nM.
The corresponding values for `O=C(NCc1ccc(S(=O)(=O)c2cccc(Cl)c2)cc1)c1ccc2nccn2c1` [N-({4-[(3-chlorobenzene)sulfonyl]phenyl}methyl)imidazo[1,2-a]pyridine-6-carboxamide] are 3.07 nM and 9.08 nM.
Turning to `O=C(NCc1ccc(S(=O)(=O)c2cccc(Cl)c2)cc1)c1cc2ccncc2s1` [N-({4-[(3-chlorobenzene)sulfonyl]phenyl}methyl)thieno[2,3-c]pyridine-2-carboxamide], the figures for the IC50 in test [1] (SRB assay) and in test [2] were 3 nM and 5 nM, respectively.
As to `N#Cc1cccc(S(=O)(=O)c2ccc(CNC(=O)c3cnc4[nH]ncc4c3)cc2)c1` [N-({4-[(3-cyanobenzene)sulfonyl]phenyl}methyl)-1H-pyrazolo[3,4-b]pyridine-5-carboxamide], the values for the IC50 in test [1] (SRB) and in test [2] were 9.54 nM and 18.5 nM, respectively.
Take `N#Cc1cccc(S(=O)(=O)c2ccc(CNC(=O)c3cc4ccncc4o3)cc2)c1` [N-({4-[(3-cyanobenzene)sulfonyl]phenyl}methyl)furo[2,3-c]pyridine-2-carboxamide]: the IC50 in test [1] (SRB) turned out to be 12.6 nM; in test [2] it was 15.4 nM.
For `CCOc1cc(S(=O)(=O)c2ccc(CNC(=O)c3cnc4[nH]ncc4c3)cc2)ccc1F` [N-({4-[(3-ethoxy-4-fluorobenzene)sulfonyl]phenyl}methyl)-1H-pyrazolo[3,4-b]pyridine-5-carboxamide], the IC50 in test [1] (SRB) was 12 nM; in test [2], 26.1 nM.
Take `CCOc1cc(S(=O)(=O)c2ccc(CNC(=O)c3cc4ccncc4o3)cc2)ccc1F` [N-({4-[(3-ethoxy-4-fluorobenzene)sulfonyl]phenyl}methyl)furo[2,3-c]pyridine-2-carboxamide]: the values for the IC50 in test [1] (SRB) and in test [2] were 7.2 nM and 11 nM, respectively.
In the case of `CCOc1cc(S(=O)(=O)c2ccc(CNC(=O)c3cnc4nccn4c3)cc2)ccc1F` [N-({4-[(3-ethoxy-4-fluorobenzene)sulfonyl]phenyl}methyl)imidazo[1,2-a]pyrimidine-6-carboxamide], the IC50 was found to be 7.8 nM in test [1] (SRB) and 0.3 nM in test [2].
Consider `CCOc1cccc(S(=O)(=O)c2ccc(CNC(=O)c3cc4cnccc4[nH]3)cc2)c1` [N-({4-[(3-ethoxybenzene)sulfonyl]phenyl}methyl)-1H-pyrrolo[3,2-c]pyridine-2-carboxamide], for which the IC50 was 3.5 nM in test [1] (SRB) and 7.7 nM in test [2].
Consider `CCOc1cccc(S(=O)(=O)c2ccc(CNC(=O)c3cc4ccncc4o3)cc2)c1` [N-({4-[(3-ethoxybenzene)sulfonyl]phenyl}methyl)furo[2,3-c]pyridine-2-carboxamide], for which the values for the half-inhibitory concentration (IC50) in test [1] (SRB) and in test [2] were 11 nM and 6.8 nM, respectively.
Regarding `CCc1cccc(S(=O)(=O)c2ccc(CNC(=O)c3cc4ccncc4o3)cc2)c1` [N-({4-[(3-ethylbenzene)sulfonyl]phenyl}methyl)furo[2,3-c]pyridine-2-carboxamide], the values for the IC50 in test [1] (SRB) and in test [2] were 6.5 nM and 8.7 nM, respectively.
For the compound `CCc1cccc(S(=O)(=O)c2ccc(CNC(=O)c3ccc4nccn4c3)cc2)c1` [N-({4-[(3-ethylbenzene)sulfonyl]phenyl}methyl)imidazo[1,2-a]pyridine-6-carboxamide], the IC50 turned out to be 3.23 nM in test [1] (SRB) and 4.83 nM in test [2].
As for `CCc1cccc(S(=O)(=O)c2ccc(CNC(=O)c3cc4ccncc4s3)cc2)c1` [N-({4-[(3-ethylbenzene)sulfonyl]phenyl}methyl)thieno[2,3-c]pyridine-2-carboxamide], the IC50 amounted to 2.7 nM in test [1] (SRB assay) and 6 nM in test [2].
As to `COc1c(F)cccc1S(=O)(=O)c1ccc(CNC(=O)c2cnc3[nH]ncc3c2)cc1` [N-({4-[(3-fluoro-2-methoxybenzene)sulfonyl]phenyl}methyl)-1H-pyrazolo[3,4-b]pyridine-5-carboxamide], the IC50 in test [1] (SRB) is 100 to 1000 nM; in test [2], 121 nM.
For `COc1c(F)cccc1S(=O)(=O)c1ccc(CNC(=O)c2ccc3nccn3c2)cc1` [N-({4-[(3-fluoro-2-methoxybenzene)sulfonyl]phenyl}methyl)imidazo[1,2-a]pyridine-6-carboxamide], the IC50 in test [1] (SRB) worked out at 65 nM; in test [2], 76.9 nM.
On to `Cc1c(F)cccc1S(=O)(=O)c1ccc(CNC(=O)c2cnc3[nH]ncc3c2)cc1` [N-({4-[(3-fluoro-2-methylbenzene)sulfonyl]phenyl}methyl)-1H-pyrazolo[3,4-b]pyridine-5-carboxamide], for which the values for the IC50 in test [1] (SRB) and in test [2] were 71.8 nM and 46.9 nM, respectively.
Regarding `COc1ccc(S(=O)(=O)c2ccc(CNC(=O)c3cnc4[nH]ncc4c3)cc2)cc1F` [N-({4-[(3-fluoro-4-methoxybenzene)sulfonyl]phenyl}methyl)-1H-pyrazolo[3,4-b]pyridine-5-carboxamide], the IC50 in test [1] (SRB) is 6 nM; in test [2] it was 43 nM.
Take `COc1ccc(S(=O)(=O)c2ccc(CNC(=O)c3cc4cnccc4[nH]3)cc2)cc1F` [N-({4-[(3-fluoro-4-methoxybenzene)sulfonyl]phenyl}methyl)-1H-pyrrolo[3,2-c]pyridine-2-carboxamide]: the results for the IC50 in test [1] (SRB assay) and in test [2] were 4 nM and 5 nM, respectively.
Consider `COc1ccc(S(=O)(=O)c2ccc(CNC(=O)c3ccc4nccn4c3)cc2)cc1F` [N-({4-[(3-fluoro-4-methoxybenzene)sulfonyl]phenyl}methyl)imidazo[1,2-a]pyridine-6-carboxamide], for which the figures for the IC50 in test [1] (SRB) and in test [2] were 2.89 nM and 5.95 nM, respectively.
On to `COc1ccc(S(=O)(=O)c2ccc(CNC(=O)c3cnc4nccn4c3)cc2)cc1F` [N-({4-[(3-fluoro-4-methoxybenzene)sulfonyl]phenyl}methyl)imidazo[1,2-a]pyrimidine-6-carboxamide], for which the IC50 stood at 8.3 nM in test [1] (SRB) and 1.7 nM in test [2].
Consider `COc1ccc(S(=O)(=O)c2ccc(CNC(=O)c3cc4ccncc4s3)cc2)cc1F` [N-({4-[(3-fluoro-4-methoxybenzene)sulfonyl]phenyl}methyl)thieno[2,3-c]pyridine-2-carboxamide], for which the figures for the IC50 in test [1] (SRB assay) and in test [2] were 2.5 nM and 5 nM, respectively.
For the compound `Cc1ccc(S(=O)(=O)c2ccc(CNC(=O)c3cc4cnccc4[nH]3)cc2)cc1F` [N-({4-[(3-fluoro-4-methylbenzene)sulfonyl]phenyl}methyl)-1H-pyrrolo[3,2-c]pyridine-2-carboxamide], the values for the IC50 in test [1] (SRB assay) and in test [2] were 6 nM and 8 nM, respectively.
With `Cc1ccc(S(=O)(=O)c2ccc(CNC(=O)c3ccc4nccn4c3)cc2)cc1F` [N-({4-[(3-fluoro-4-methylbenzene)sulfonyl]phenyl}methyl)imidazo[1,2-a]pyridine-6-carboxamide], the IC50 stood at 3.78 nM in test [1] (SRB) and 13.3 nM in test [2].
For `Cc1ccc(S(=O)(=O)c2ccc(CNC(=O)c3cc4ccncc4s3)cc2)cc1F` [N-({4-[(3-fluoro-4-methylbenzene)sulfonyl]phenyl}methyl)thieno[2,3-c]pyridine-2-carboxamide], the IC50 was 2.8 nM in test [1] (SRB assay) and 3 nM in test [2].
As for `CCCOc1ccc(S(=O)(=O)c2ccc(CNC(=O)c3cnc4[nH]ncc4c3)cc2)cc1F` [N-({4-[(3-fluoro-4-propoxybenzene)sulfonyl]phenyl}methyl)-1H-pyrazolo[3,4-b]pyridine-5-carboxamide], the results for the IC50 in test [1] (SRB) and in test [2] were 6.5 nM and 11.6 nM, respectively.
Consider `COc1cc(F)cc(S(=O)(=O)c2ccc(CNC(=O)c3cc4ccncc4o3)cc2)c1` [N-({4-[(3-fluoro-5-methoxybenzene)sulfonyl]phenyl}methyl)furo[2,3-c]pyridine-2-carboxamide], for which the IC50 in test [1] (SRB) was 3.3 nM; in test [2], 17.4 nM.
For the compound `Cc1cc(F)cc(S(=O)(=O)c2ccc(CNC(=O)c3ccc4nccn4c3)cc2)c1` [N-({4-[(3-fluoro-5-methylbenzene)sulfonyl]phenyl}methyl)imidazo[1,2-a]pyridine-6-carboxamide], the IC50 is 0.6 nM in test [1] (SRB) and 2.7 nM in test [2].
As to `O=C(NCc1ccc(S(=O)(=O)c2cccc(F)c2)cc1)c1cc2cnccc2[nH]1` [N-({4-[(3-fluorobenzene)sulfonyl]phenyl}methyl)-1H-pyrrolo[3,2-c]pyridine-2-carboxamide], the IC50 was determined as 10 nM in test [1] (SRB assay) and 9 nM in test [2].
As to `O=C(NCc1ccc(S(=O)(=O)c2cccc(F)c2)cc1)c1cc2ccncc2o1` [N-({4-[(3-fluorobenzene)sulfonyl]phenyl}methyl)furo[2,3-c]pyridine-2-carboxamide], the 50% inhibitory concentration (IC50) in test [1] (SRB) was 14.5 nM; in test [2] it was 5.8 nM.
In the case of `O=C(NCc1ccc(S(=O)(=O)c2cccc(F)c2)cc1)c1ccc2nccn2c1` [N-({4-[(3-fluorobenzene)sulfonyl]phenyl}methyl)imidazo[1,2-a]pyridine-6-carboxamide], the values for the IC50 in test [1] (SRB) and in test [2] were 12.2 nM and 22.1 nM, respectively.
With `O=C(NCc1ccc(S(=O)(=O)c2cccc(F)c2)cc1)c1cc2ccncc2s1` [N-({4-[(3-fluorobenzene)sulfonyl]phenyl}methyl)thieno[2,3-c]pyridine-2-carboxamide], the IC50 was 3.3 nM in test [1] (SRB assay) and 3 nM in test [2].
